The assay has as its system hepatic mitochondria. As to the kind of experiment: Hepatic mitochondrial morphology (NADH/NADPH autofluorescence) after acute treatment. The class given is in vivo, mouse. As to the method:
To determine whether sphingolipid-like compound 893 also protects from ceramide-induced mitochondrial fragmentation in vivo, a cohort of mice with diet-induced obesity was analyzed. Male, C57BL/6J mice were fed a 45% kcal from fat rodent diet (HFD) or a standard chow diet (10% kcal from fat) for 22-26 weeks. Mitochondrial morphology was compared in freshly resected livers from vehicle- or sphingolipid-like compound 893-treated mice using NADH/NADPH autofluorescence and confocal microscopy. When evaluating mitochondrial morphology, light microscopy has two, significant advantages over electron microscopy: 1) the 3D architecture of the mitochondrial network is readily apparent, and 2) quantitative measurements of mitochondrial shape can be made in a large number of cells in an automated and unbiased manner using image analysis software (FIG. 11). […]
MEFs were washed twice with PBS and fixed with 4% paraformaldehyde for 10 min at RT. […] NADH/NADPH autofluorescence was detected with 740 nm excitation and 450±50 nm detectors using a Mai Tai two-photon laser. Fluorescence microscopy was performed on a Zeiss LSM 780 confocal using a 63× oil objective with a […] numerical aperture (NA) or using a Nikon TE2000-S inverted epifluorescence microscope with a 100× oil objective (1.3 NA) and a Photometrics CoolSNAP ES2 monochrome CCD camera. […]

The results in this text go back to US20220409617A1, “Drug Formulations and Methods of Treatment for Metabolic Disorders” (The Regents of the University of California, priority 2019, published 2022).

Structures are written as SMILES.

For the molecule `CCCCCCCCc1ccc([C@H]2CCN[C@@H]2CO)cc1.Cl` [compound 893], the “Hepatic mitochondrial morphology (aspect ratio, roundness), HFD-fed mice” value (single oral dose 120 mg/kg at ZT8.5, HFD-fed, treatment-naive mice) is “increasing their tubularity (increased aspect ratio) and reducing their roundness to match controls fed standard chow”. The “Hepatic mitochondrial morphology, lean SD-fed mice” value (single oral dose 120 mg/kg, mice consuming the SD) is reported as “did not significantly alter hepatic mitochondrial morphology”.
